Laboratory results as given in US20180353565A1, “PHARMACEUTICAL FORMULATIONS AND THEIR USE FOR THE TREATMENT OF RETINITIS PIGMENTOSA” (KALEYDE PHARMACEUTICALS AG, priority 2016, published 2018).
Where a SMILES comes first, the peptide text is derived from it. [ ]: non-standard residue; d: D form. αMeF = C[C@](N)(Cc1ccccc1)C(=O)O; Aib = CC(C)(N)C(=O)O

How the values were obtained:
[1] = Tissue distribution at Tmax after single subcutaneous administration (LC-MS); type: in vivo, Sprague-Dawley rats; conditions: at Tmax after 16.6 mg/kg s.c., rat
Procedure: (§1) 10 Male Sprague-Dawley rats were used. The rats were divided into two groups of 5 for determination of plasma pharmacokinetics and tissue distribution, by single subcutaneous administration at the dose of 16.6 mg/kg in a volume of 1 mL/kg. Blood samples were taken after 0.25, 0.5, 1, 2, 4, 6, 8 and 24 hours; subsequently, in the second group of rats, tissue samples were taken at Tmax. The kinetic equation, Cmax, Tmax, plasma half-life and AUC were determined. The concentrations were measured by LC-MS.
As will be seen, the kidney is the organ with the highest values compared with the other tissues. However, in the eyes, which represent the target tissue, the peptide is present with a tissue plasma ratio of about 5.

[2] = Plasma pharmacokinetics after single subcutaneous administration (LC-MS); type: in vivo, Sprague-Dawley rats; conditions: Dose 16.6 mg/kg s.c.
Procedure: as §1

[3] = test system: mice with oxygen-induced retinopathy; conditions: cited from earlier work
[4] = test system: RCS/Kyo rat (Royal College of Surgeons rat); assay: Efficacy in RCS/KYO rats by intravitreal or subcutaneous administration (retinal and ONL thickness under the microscope); type: in vivo; conditions: for Retinal thickness % of control / Thickness of ONL % of control / Thickness of ONL (outer nuclear layer): age 49 days; for Retinal thickness: measured at age 49 days
From the text: The RCS/Kyo rat (Royal College of Surgeons rat) represents the most commonly used model in the study of this eye disease. RCS rats present retinal degeneration that makes them the ideal model for the study of this disease. […] The epithelial cells of the retina in these animals are unable to ingest the […] photoreceptor cells, and those photoreceptors therefore die.
45 male and female RCS/Kyo rats, aged 14/21 days, were employed, using the tetrapeptide Ac-Arg-Aib-Arg-α(Me)Phe-NH2, formulated as reported in example 1A, at the concentration of 1.2 mg/mL for intravitreal injection, or 7.6 mg/mL for subcutaneous injection.
The treatment regimen used is set out below:
After euthanasia of the rats at the age of 49 days, the thickness of the retina in the various groups was measured under the microscope:
The thickness of the outer layer of granules (outer nuclear layer, ONL, cell body of cones and rods) was also measured.

[5] = male, Sprague-Dawley, sc, rat plasma
[6] = intravitreal injection, OIR mice
[7] = group S-ivt-sd-t: intravitreal, therapeutic, single dose 4 μg at day 22
[8] = group S-sc-rd-p: subcutaneous, preventive, 1800 μg from day 14, 6 times a week for 5 weeks
[9] = group S-sc-rd-t: subcutaneous, therapeutic, 1800 μg from day 22, 6 times a week for 4 weeks

Structure (SMILES): CC(=O)N[C@@H](CCCNC(=N)N)C(=O)NC(C)(C)C(=O)N[C@@H](CCCNC(=N)N)C(=O)N[C@@](C)(Cc1ccccc1)C(N)=O [Ac-Arg-Aib-Arg-α(Me)Phe-NH2] (Ac-R[Aib]R[αMeF]-NH2)
- Tissue plasma ratio, eyes [1]: about 5
- Kelim ([2]; rat plasma): 0.309 ± 0.029 h⁻¹
- Tmax ([2]; male, Sprague-Dawley, rat, plasma, sc, 16.6 mg/kg): ~2 h
- AUC(0-inf) [2, 5]: 39300 ± 4010 ng·h/mL
- AUC(0-t) [2, 5]: 39300 ± 3990 ng·h/mL
- Cmax [2, 5]: 5910 ± 1180 ng/mL
- half-life [2, 5]: 2.26 ± 0.226 h
- Effect on inflammatory markers [3, 6]: reducing the anti-inflammatory markers
- Effect on retinal neovascularization [3, 6]: reducing retinal neovascularization
- Effect on the blood-retinal barrier [3, 6]: repairing dysfunctions of the blood-retinal barrier
- Effect on the structure of the retina (words, literature) ([3]; reported in IOVS (2015), 56(4) 2392-2407): does not modify the structure of the retina
- Effect on retinal structure ([4]; RCS/KYO rats): restore nearly all the strongly deteriorated retinal structure
- Change of retinal thickness ([4]; all the treated groups, preventive treatment to a lesser extent): considerable increase in retinal thickness
- Retinal thickness % of control [4, 7]: 110 % of control
- Thickness of ONL % of control [4, 7]: 134 % of control
- Thickness of ONL (outer nuclear layer) [4, 7]: 12.09 μm
- Retinal thickness ([4]; group S-ivt-sd-t: intravitreal, therapeutic, single dose 4 μg at day 22 after birth): 132.08 μm
- Retinal thickness % of control [4, 8]: 130 % of control
- Thickness of ONL % of control [4, 8]: 196 % of control
- Thickness of ONL (outer nuclear layer) [4, 8]: 17.64 μm
- Retinal thickness [4, 8]: 155.25 μm
- Retinal thickness % of control [4, 9]: 153 % of control
- Thickness of ONL % of control [4, 9]: 196 % of control
- Thickness of ONL (outer nuclear layer) [4, 9]: 17.62 μm
- Retinal thickness [4, 9]: 182.67 μm
- Change of ONL thickness ([4]; repeated subcutaneous doses): double the thickness of the layer
- Increase of the photoreceptor layer ([4]; single dose of 4 μg per eye): 34%
